Key:
Format in all cases: in vivo
corn (Zea mays) [1] = assay: Test G Post-Emergence Protocol; settings: Zea mays, post-emergence, 312 h, read-out: Corn damage rating; for plant injury at 15.625 g/ha: 15.625 g ai/ha, evaluated after 13 days (100=total damage to plant; 0=no damage to plant); for plant injury at 62.5 g/ha: 62.5 g ai/ha; for plant injury at 62.5 g/ha / plant injury at 250 g/ha: evaluated after 13 days, 100=total damage to plant, 0=no damage to plant; for plant injury at 250 g/ha: 250 g ai/ha
Summary of the method: (§1)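 Damage was rated 13 days after treatment from 0 (none) to 100 (plant killed). Compound was applied as a spray at 15.625, 62.5 or 250 g/ha in 50:50 acetone/water containing 0.5% Tween 20, onto 8-day-old potted plants kept in a glasshouse (24/16 °C, 14 h light, 65% humidity).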

[2] = tested on: ivy-leaved morning glory (Ipomoea hederacea); assay: Test G Post-Emergence Protocol; settings: Ipomoea, post-emergence, 312 h, read-out: Morningglory, Ivy-leaved damage rating; for pest or weed control at 15.625 g/ha: 15.625 g ai/ha, evaluated after 13 days (100=total damage to plant; 0=no damage to plant); for pest or weed control at 62.5 g/ha: 62.5 g ai/ha; for pest or weed control at 62.5 g/ha / pest or weed control at 250 g/ha: evaluated after 13 days, 100=total damage to plant, 0=no damage to plant; for pest or weed control at 250 g/ha: 250 g ai/ha
Summary of the method: as §1

[3] = tested on: redroot pigweed (Amaranthus retroflexus); assay: Test G Post-Emergence Protocol; settings: Amaranthus retroflexus, post-emergence, 312 h, read-out: Pigweed, Redroot damage rating; for pest or weed control at 15.625 g/ha: 15.625 g ai/ha, evaluated after 13 days (100=total damage to plant; 0=no damage to plant); for pest or weed control at 62.5 g/ha: 62.5 g ai/ha; for pest or weed control at 62.5 g/ha / pest or weed control at 250 g/ha: evaluated after 13 days, 100=total damage to plant, 0=no damage to plant; for pest or weed control at 250 g/ha: 250 g ai/ha
Summary of the method: as §1

[4] = tested on: velvetleaf (Abutilon theophrasti); assay: Test G Post-Emergence Protocol; settings: Abutilon theophrasti, post-emergence, 312 h, read-out: Velvetleaf damage rating; for pest or weed control at 15.625 g/ha: 15.625 g ai/ha, evaluated after 13 days (100=total damage to plant; 0=no damage to plant); for pest or weed control at 62.5 g/ha: 62.5 g ai/ha; for pest or weed control at 62.5 g/ha / pest or weed control at 250 g/ha: evaluated after 13 days, 100=total damage to plant, 0=no damage to plant; for pest or weed control at 250 g/ha: 250 g ai/ha
Summary of the method: as §1

[5] = tested on: barnyardgrass (Echinochloa crus-galli); assay: Test G Post-Emergence Protocol; settings: Echinochloa crus-galli, post-emergence, 312 h, read-out: Barnyardgrass damage rating; for pest or weed control at 15.625 g/ha: 15.625 g ai/ha, evaluated after 13 days (100=total damage to plant; 0=no damage to plant); for pest or weed control at 62.5 g/ha: 62.5 g ai/ha; for pest or weed control at 62.5 g/ha / pest or weed control at 250 g/ha: evaluated after 13 days, 100=total damage to plant, 0=no damage to plant; for pest or weed control at 250 g/ha: 250 g ai/ha
Summary of the method: as §1

[6] = tested on: giant foxtail (Setaria faberi); assay: Test G Post-Emergence Protocol; settings: Setaria faberi, post-emergence, 312 h, read-out: Foxtail, Giant damage rating; for pest or weed control at 15.625 g/ha: 15.625 g ai/ha, evaluated after 13 days (100=total damage to plant; 0=no damage to plant); for pest or weed control at 62.5 g/ha: 62.5 g ai/ha; for pest or weed control at 62.5 g/ha / pest or weed control at 250 g/ha: evaluated after 13 days, 100=total damage to plant, 0=no damage to plant; for pest or weed control at 250 g/ha: 250 g ai/ha
Summary of the method: as §1

corn (Zea mays) [7] = assay: Test G Pre-Emergence Protocol; settings: Zea mays, pre-emergence, 312 h, evaluated after 13 days; for plant injury at 15.625 g/ha: 15.625 g ai/ha; for plant injury at 15.625 g/ha / plant injury at 250 g/ha: read-out: Corn damage rating (100=total damage to plant; 0=no damage to plant); for plant injury at 62.5 g/ha: 62.5 g ai/ha, 100=total damage to plant, 0=no damage to plant, read-out: Corn damage rating; for plant injury at 250 g/ha: 250 g ai/ha
Summary of the method: (§2)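 Herbicidal effect was rated 13 days post-application on a scale where 100 equals total damage. Spraying took place the day after sowing, using 15.625, 62.5 or 250 g/ha of compound in a 50:50 acetone/water solution with 0.5% Tween 20.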

[8] = tested on: ivy-leaved morning glory (Ipomoea hederacea); assay: Test G Pre-Emergence Protocol; settings: Ipomoea, pre-emergence, 312 h, evaluated after 13 days; for pest or weed control at 15.625 g/ha: 15.625 g ai/ha; for pest or weed control at 15.625 g/ha / pest or weed control at 250 g/ha: read-out: Morningglory, Ivy-leaved damage rating (100=total damage to plant; 0=no damage to plant); for pest or weed control at 62.5 g/ha: 62.5 g ai/ha, 100=total damage to plant, 0=no damage to plant, read-out: Morningglory, Ivy-leaved damage rating; for pest or weed control at 250 g/ha: 250 g ai/ha
Summary of the method: as §2

[9] = tested on: redroot pigweed (Amaranthus retroflexus); assay: Test G Pre-Emergence Protocol; settings: Amaranthus retroflexus, pre-emergence, 312 h, evaluated after 13 days; for pest or weed control at 15.625 g/ha: 15.625 g ai/ha; for pest or weed control at 15.625 g/ha / pest or weed control at 250 g/ha: read-out: Pigweed, Redroot damage rating (100=total damage to plant; 0=no damage to plant); for pest or weed control at 62.5 g/ha: 62.5 g ai/ha, 100=total damage to plant, 0=no damage to plant, read-out: Pigweed, Redroot damage rating; for pest or weed control at 250 g/ha: 250 g ai/ha
Summary of the method: as §2

[10] = tested on: velvetleaf (Abutilon theophrasti); assay: Test G Pre-Emergence Protocol; settings: Abutilon theophrasti, pre-emergence, 312 h, evaluated after 13 days; for pest or weed control at 15.625 g/ha: 15.625 g ai/ha; for pest or weed control at 15.625 g/ha / pest or weed control at 250 g/ha: read-out: Velvetleaf damage rating (100=total damage to plant; 0=no damage to plant); for pest or weed control at 62.5 g/ha: 62.5 g ai/ha, 100=total damage to plant, 0=no damage to plant, read-out: Velvetleaf damage rating; for pest or weed control at 250 g/ha: 250 g ai/ha
Summary of the method: as §2

[11] = tested on: barnyardgrass (Echinochloa crus-galli); assay: Test G Pre-Emergence Protocol; settings: Echinochloa crus-galli, pre-emergence, 312 h, evaluated after 13 days; for pest or weed control at 15.625 g/ha: 15.625 g ai/ha; for pest or weed control at 15.625 g/ha / pest or weed control at 250 g/ha: read-out: Barnyardgrass damage rating (100=total damage to plant; 0=no damage to plant); for pest or weed control at 62.5 g/ha: 62.5 g ai/ha, 100=total damage to plant, 0=no damage to plant, read-out: Barnyardgrass damage rating; for pest or weed control at 250 g/ha: 250 g ai/ha
Summary of the method: as §2

[12] = tested on: giant foxtail (Setaria faberi); assay: Test G Pre-Emergence Protocol; settings: Setaria faberi, pre-emergence, 312 h, evaluated after 13 days; for pest or weed control at 15.625 g/ha: 15.625 g ai/ha; for pest or weed control at 15.625 g/ha / pest or weed control at 250 g/ha: read-out: Foxtail, Giant damage rating (100=total damage to plant; 0=no damage to plant); for pest or weed control at 62.5 g/ha: 62.5 g ai/ha, 100=total damage to plant, 0=no damage to plant, read-out: Foxtail, Giant damage rating; for pest or weed control at 250 g/ha: 250 g ai/ha
Summary of the method: as §2

Row | SMILES | plant injury at 15.625 g/ha (corn (Zea mays) [1]) [%] | plant injury at 62.5 g/ha (corn (Zea mays) [1]) [%] | plant injury at 250 g/ha (corn (Zea mays) [1]) [%] | pest or weed control at 15.625 g/ha [2] [%] | pest or weed control at 62.5 g/ha [2] [%] | pest or weed control at 250 g/ha [2] [%] | pest or weed control at 15.625 g/ha [3] [%] | pest or weed control at 62.5 g/ha [3] [%] | pest or weed control at 250 g/ha [3] [%] | pest or weed control at 15.625 g/ha [4] [%] | pest or weed control at 62.5 g/ha [4] [%] | pest or weed control at 250 g/ha [4] [%] | pest or weed control at 15.625 g/ha [5] [%] | pest or weed control at 62.5 g/ha [5] [%] | pest or weed control at 250 g/ha [5] [%] | pest or weed control at 15.625 g/ha [6] [%] | pest or weed control at 62.5 g/ha [6] [%] | pest or weed control at 250 g/ha [6] [%] | plant injury at 15.625 g/ha (corn (Zea mays) [7]) [%] | plant injury at 62.5 g/ha (corn (Zea mays) [7]) [%] | further results
1 | Cc1cc([C@H]2CN(C)C(=O)[C@@H]2C(=O)Nc2cccc(F)n2)cc(C(F)(F)F)c1 (racemic) [Compound 1801] | 10 | 70 | 80 | 0 | 10 | 50 | 0 | 0 | 40 | 0 | 0 | 0 | 20 | 60 | 70 | 70 | 80 | 80 | 10 | 40 | plant injury at 250 g/ha (corn (Zea mays) [7]): 80%; pest or weed control at 15.625 g/ha [8]: 0%; pest or weed control at 62.5 g/ha [8]: 0%; pest or weed control at 250 g/ha [8]: 40%; pest or weed control at 15.625 g/ha [9]: 0%; pest or weed control at 62.5 g/ha [9]: 20%; pest or weed control at 250 g/ha [9]: 40%; pest or weed control at 15.625 g/ha [10]: 0%; pest or weed control at 62.5 g/ha [10]: 10%; pest or weed control at 250 g/ha [10]: 20%; pest or weed control at 15.625 g/ha [11]: 40%; pest or weed control at 62.5 g/ha [11]: 80%; pest or weed control at 250 g/ha [11]: 90%; pest or weed control at 15.625 g/ha [12]: 80%; pest or weed control at 62.5 g/ha [12]: 90%; pest or weed control at 250 g/ha [12]: 90%
2 | Cc1c(F)cccc1NC(=O)[C@@H]1C(=O)N(C)C[C@H]1c1ccnc(OCC(F)(F)F)c1 (racemic) [Compound 1802] | 0 | 0 | 60 | 0 | 0 | 0 | 0 | 0 | 40 | 0 | 40 | 70 | 0 | 60 | 70 | 40 | 70 | 80 | 0 | 0 | plant injury at 250 g/ha (corn (Zea mays) [7]): 70%; pest or weed control at 15.625 g/ha [8]: 0%; pest or weed control at 62.5 g/ha [8]: 0%; pest or weed control at 250 g/ha [8]: 40%; pest or weed control at 15.625 g/ha [9]: 0%; pest or weed control at 62.5 g/ha [9]: 10%; pest or weed control at 250 g/ha [9]: 30%; pest or weed control at 15.625 g/ha [10]: 0%; pest or weed control at 62.5 g/ha [10]: 20%; pest or weed control at 250 g/ha [10]: 70%; pest or weed control at 15.625 g/ha [11]: 10%; pest or weed control at 62.5 g/ha [11]: 70%; pest or weed control at 250 g/ha [11]: 90%; pest or weed control at 15.625 g/ha [12]: 70%; pest or weed control at 62.5 g/ha [12]: 90%; pest or weed control at 250 g/ha [12]: 90%
3 | CCc1cc([C@@H]2CN(C)C(=O)[C@H]2C(=O)Nc2cccc(F)c2C)ccc1Cl (racemic) [Compound 1804] | 0 | 0 | 70 | 0 | 50 | 60 | 0 | 0 | 10 | 0 | 10 | 10 | 0 | 50 | 60 | 0 | 70 | 80 | 0 | 0 | plant injury at 250 g/ha (corn (Zea mays) [7]): 60%; pest or weed control at 15.625 g/ha [8]: 0%; pest or weed control at 62.5 g/ha [8]: 0%; pest or weed control at 250 g/ha [8]: 10%; pest or weed control at 15.625 g/ha [9]: 0%; pest or weed control at 62.5 g/ha [9]: 20%; pest or weed control at 250 g/ha [9]: 30%; pest or weed control at 15.625 g/ha [10]: 0%; pest or weed control at 62.5 g/ha [10]: 10%; pest or weed control at 250 g/ha [10]: 30%; pest or weed control at 15.625 g/ha [11]: 0%; pest or weed control at 62.5 g/ha [11]: 80%; pest or weed control at 250 g/ha [11]: 90%; pest or weed control at 15.625 g/ha [12]: 50%; pest or weed control at 62.5 g/ha [12]: 90%; pest or weed control at 250 g/ha [12]: 90%

Reference: US12077503B2, “Substituted cyclic amides and their use as herbicides” (FMC CORPORATION, priority 2015, dated 2024)
